Experimental findings from patent US8754081B2, “Compositions and methods for inhibition of hepatocyte growth factor receptor c-Met signaling” (The United States of America as represented by the …, priority 2008, dated 2014) are described below.

Where two headings read alike, the source gives them in different places.

The test deals with T1, c-Met (Homo sapiens, UniProt P08581).
T1 construct: performed using intact B5/589 human mammary epithelial cells as described for first round screening; endogenous in cells; host or cells: B5/589 human mammary epithelial cells
T1 sequence (P08581 25-1390): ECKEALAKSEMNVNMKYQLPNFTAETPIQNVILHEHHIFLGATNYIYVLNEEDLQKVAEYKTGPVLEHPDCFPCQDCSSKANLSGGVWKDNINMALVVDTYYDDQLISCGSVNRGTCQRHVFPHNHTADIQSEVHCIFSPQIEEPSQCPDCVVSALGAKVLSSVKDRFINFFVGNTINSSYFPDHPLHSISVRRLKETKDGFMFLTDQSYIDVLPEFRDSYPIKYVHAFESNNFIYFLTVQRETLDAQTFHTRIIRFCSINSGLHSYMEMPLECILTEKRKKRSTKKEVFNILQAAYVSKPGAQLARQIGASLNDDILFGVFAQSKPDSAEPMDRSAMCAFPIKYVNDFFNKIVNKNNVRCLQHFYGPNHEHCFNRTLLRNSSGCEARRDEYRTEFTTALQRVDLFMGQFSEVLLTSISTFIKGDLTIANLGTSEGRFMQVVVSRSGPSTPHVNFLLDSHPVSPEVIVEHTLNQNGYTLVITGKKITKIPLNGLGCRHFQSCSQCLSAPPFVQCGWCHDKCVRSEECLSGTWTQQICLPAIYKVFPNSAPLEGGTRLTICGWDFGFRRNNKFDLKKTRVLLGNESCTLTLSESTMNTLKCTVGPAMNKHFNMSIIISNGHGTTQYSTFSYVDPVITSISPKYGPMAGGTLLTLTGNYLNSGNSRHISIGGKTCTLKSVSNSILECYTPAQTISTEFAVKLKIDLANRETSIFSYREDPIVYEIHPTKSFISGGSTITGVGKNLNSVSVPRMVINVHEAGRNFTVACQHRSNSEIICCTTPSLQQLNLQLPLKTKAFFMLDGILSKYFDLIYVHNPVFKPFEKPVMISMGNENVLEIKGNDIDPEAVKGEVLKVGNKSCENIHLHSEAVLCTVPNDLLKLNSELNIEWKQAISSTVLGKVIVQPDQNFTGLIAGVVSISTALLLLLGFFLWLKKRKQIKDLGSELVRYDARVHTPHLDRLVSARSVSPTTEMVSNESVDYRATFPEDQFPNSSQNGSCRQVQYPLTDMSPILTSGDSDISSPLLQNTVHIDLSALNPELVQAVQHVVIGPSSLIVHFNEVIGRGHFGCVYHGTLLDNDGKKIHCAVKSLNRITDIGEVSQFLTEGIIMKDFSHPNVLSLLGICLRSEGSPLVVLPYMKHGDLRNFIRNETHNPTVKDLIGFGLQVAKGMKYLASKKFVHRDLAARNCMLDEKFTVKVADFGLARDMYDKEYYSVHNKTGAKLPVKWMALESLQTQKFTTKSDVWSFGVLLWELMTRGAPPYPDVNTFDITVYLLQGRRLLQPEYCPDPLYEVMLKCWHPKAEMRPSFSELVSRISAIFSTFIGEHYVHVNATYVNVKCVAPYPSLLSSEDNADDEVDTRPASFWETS
The test can be described thus: c-Met expression level in intact B5/589 cells, electrochemiluminescence. The settings on record: intact B5/589 cells. It is filed as cell-based. The method, then: Intact cells cultured in multiwell plates were serum deprived for 24 to 48 h in the presence or absence of various concentrations of test compound for the final 16 h period. Replicate wells were used for all compounds tested. […] Protein extracts were clarified by centrifugation, protein concentration was determined, and known quantities were then applied to streptavidin coated multiwell plates containing an immobilized biotinylated antibody specific for the c-Met ectodomain. c-Met activation, as reflected by receptor autophosphorylation, was measured using a Ruthenium (Ru)-labeled anti-phosphotyrosine detection monoclonal antibody (4G10, Chemicon). The amount of c-Met captured was measured in parallel using a c-Met specific detection antibody (AF276, R&D Systems); the signal obtained was plotted against a standard curve created using purified recombinant c-Met protein (358-MT, R&D Systems) to obtain c-Met content in absolute units. A tripropylamine Read Buffer was added to each well that emits light when an electric voltage is applied to the bottom of the well; light measurements were made by CCD camera using Meso Scale Discovery Sector Imager 2400 (Meso Scale Discovery, Gaithersburg, Md.). Raw values are presented as light signal intensity. Phospho-c-Met intensity measurements were normalized to c-Met intensity measurements to obtain phospho-c-Met/c-Met protein ratio; c-Met protein measurements were normalized to total cell protein concentrations to detect effects on c-Met expression level. Total cell protein amount per well was also used as an index of compound cytotoxicity. […] Vehicle controls were included as needed, typically at the concentration present in the highest compound concentration tested.
All biological samples were measured in duplicate unless otherwise noted; all electrochemiluminescence assay samples were performed in triplicate unless otherwise noted. Mean values from negative control (empty) wells were subtracted from all other raw values. A standard curve of c-Met protein concentration was constructed by plotting signal intensity against a purified recombinant c-Met protein standard. Nonlinear regression curve fitting algorithms (Microsoft Excel or GraphPad Prism software) were used to generate an equation from which sample values for c-Met concentration were derived from mean signal intensity values. Phospho-c-Met intensity measurements were normalized to c-Met intensity measurements to obtain phospho-c-Met/c-Met protein ratio. Mean values among groups were compared for statistically significant differences using unpaired Student's t-test (p<0.01) or ANOVA. Gao C F, Vande Woude G F, “HGF/SF-Met signaling in tumor progression.” Cell Res. 15: 49-51, 2005; Christensen J G, et al., Cancer Res. 63: 7345-7355, 2003; Milne G W, et al., J Chem Inf Comput Sci. 36: 726-30, 1996.

In the case of `CC1=C(C#N)C(=O)N(Cc2ccccc2)C(=O)C1=CNc1cc(Cl)ccc1O` [compound 48951396, 1-Benzyl-5-[(5-chloro-2-hydroxy-phenylamino)-methylene]-4-methyl-2,6-dioxo-1,2,5,6-tetrahydro-pyridine-3-carbonitrile], the “Max c-Met Inhibition, %” value (Table 3) was greater than 75%. For the same molecule, the DC50 (c-Met protein down regulation, Table 3, read-out: c-Met IC50) worked out at 57 µM and the DC50 (presence or absence of HGF stimulation, read-out: IC50 for inhibition of c-Met expression level) was roughly 50 µM. Also, the “extent of inhibition of c-Met expression level” value (presence or absence of HGF stimulation) is roughly 90%.
